These results are taken from patent US5302586A, “Phosphonomethyl-imidazo[1,2-a]pyrimidine-2-carboxylic acid compounds for treatment of neurotoxic injury” (G. D. Searle & Co., priority 1992, dated 1994).

One experiment relates to NMDA. The conditions noted are these: CPP binding to rat brain hippocampal tissue, Murphy et al 1987; cited from earlier work.
Experiment [1] concerns the target [^3 H]MK-801 binding, rat SPM (NMDA receptor). Put plainly: [^3 H]MK-801 Binding assay (Triton X-100 treated rat synaptic plasma membranes). Conditions: 5.0 nM [^3 H]MK-801, L-glutamate 10.0 nM, 25° C., 30 min, pH 7.4. As for the experimental part:
Modulation of [^3 H]MK-801 binding was performed using Triton X-100 (0.04% v/v) treated rat SPM that had been extensively washed. Assay incubations were at 25° C. for 30 min. and contained 5.0 nM [^3 H]MK-801, L-glutamate (10.0 nM), and various concentrations of the tested compound of the invention in 50 mM Tris/acetate, pH 7.4. The assay was stopped by rapid filtration, using Brandel MB-48 Harvester, through Whatman GF/B filters treated with 0.05% polyethylenimine and the samples washed four times with 2.0 mL cold buffer. The radioactivity associated with the filter was determined by liquid scintillation spectrometry. Nonspecific binding was defined using 60 μM MK-801. IC50 were determined using a logit-log transformation of the binding data.

In experiment [2] the target is NMDA receptor site (NMDA-specific L-[^3 H]glutamate recognition site). Put plainly: NMDA-Selective Glutamate Binding Assay (L-[^3 H]glutamate, synaptic plasma membranes). Set-up: species or system rat. As for the experimental part: Synaptic plasma membranes (SPM) were prepared as previously described [Monohan, J. B. and Michel, J., "Identification and Characterization of an N-methyl-D-aspartate-specific L[^3 H]glutamate Recognition Site in Synaptic Plasma Membranes, J. Neurochem., 48, 1699-1708 (1987)]. The SPM were stored at a concentration of 10-15 mg/ml in 0.32M sucrose, 0.5 mM EDTA, 1 mM MgSO4, 5 mM Tris/SO4, pH 7.4, under liquid nitrogen. The identity and purity of the subcellular fractions were confirmed by both electron microscopy and marker enzymes. Protein concentrations were determined by using a modification of the method of Lowry [Ohnishi, S. T. and Barr, J. K., "A Simplified Method of Quantitating Proteins Using the Biuret and Phenol Reagents", Anal. Biochem., 86, 193-197 (1978)]. The SPM were treated identically for the [^3 H]AMPA (QUIS), [^3 H]kainate and sodium-dependent L-[^3 H]-glumatate binding assays. […] Beckman MP scintillation cocktail containing 7 mL/1 acetic acid was then added and the samples counted on a Beckman LS 5800 or 3801 liquid scintillation counter with automatic corrections for quenching and counting efficiency. […] Radioligand binding to the synaptic plasma membranes was analyzed using Scatchard and Hill transformations and the Ki values of the compounds determined using logit-log transformations. […]

Consider `O=C(O)C1CN(CCCP(=O)(O)O)CCN1` (stereo not shown) [CPP, 3-(2-carboxypiperazin-4-yl)propyl-1-phosphonic acid], for which the “NMDA antagonist potency and selectivity” value in the experiment on NMDA is “potent and selective NMDA antagonist”.
For orientation: Ki means the equilibrium dissociation constant of an inhibitor or competing ligand from its target. The low end stands for higher affinity, the high end for lower affinity. With `O=C(O)c1cn2c(CP(=O)(O)O)ccnc2n1` [Example 1, 5-Phosphonomethyl-imidazo[1,2-a]pyrimidine-2-carboxylic acid], the Ki was found to be 4.6 µM in experiment [1] and 8.8 µM in experiment [2] ([^3 H]GLU, Triton X-100 treated SPM, 50 mM Tris/acetate pH 7.4, 0°-4° C., 10 min).
For `O=C(O)c1cn2ccc(CP(=O)(O)O)nc2n1` [Example 2, 7-phosphonomethyl-imidazo[1,2-a]pyrimidine-2-carboxylic acid], the “[^3 H]GLU % inhibition” value in experiment [2] (@ 10 μM) is recorded as 14%.
